Test [1] has as its target T1, High affinity choline transporter 1 (Homo sapiens, UniProt Q9GZV3).
T1 sequence (Q9GZV3 whole entry): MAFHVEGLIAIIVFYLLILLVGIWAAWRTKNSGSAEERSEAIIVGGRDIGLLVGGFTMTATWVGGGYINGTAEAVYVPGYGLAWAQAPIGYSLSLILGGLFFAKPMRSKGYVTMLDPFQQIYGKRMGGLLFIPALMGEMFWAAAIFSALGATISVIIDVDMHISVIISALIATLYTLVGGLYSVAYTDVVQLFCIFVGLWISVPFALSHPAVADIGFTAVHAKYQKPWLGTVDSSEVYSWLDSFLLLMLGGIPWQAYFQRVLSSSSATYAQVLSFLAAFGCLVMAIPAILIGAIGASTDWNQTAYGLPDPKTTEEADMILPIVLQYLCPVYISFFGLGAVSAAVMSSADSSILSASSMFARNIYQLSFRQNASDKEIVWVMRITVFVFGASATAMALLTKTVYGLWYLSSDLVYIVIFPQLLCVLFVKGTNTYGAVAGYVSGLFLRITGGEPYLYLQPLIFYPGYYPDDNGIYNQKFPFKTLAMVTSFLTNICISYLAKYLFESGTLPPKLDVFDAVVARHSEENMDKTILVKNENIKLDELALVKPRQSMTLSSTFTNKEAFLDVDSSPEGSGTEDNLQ
The test is described as follows: CHT inhibitors, dose response, cell-based, 5-point CRC, membrane potential dye (AID 504840). The test is classed as functional.

Test [2] addresses T1, High affinity choline transporter 1. In words: CHT inhibitors, dose response, cell-based, 10-point CRC, membrane potential dye (AID 588401).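 Note: membrane potential dye fluorescence of choline-evoked depolarization via CHT.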 The test is classed as functional.
A short description of test [3]: Luminescence Cell-Based Dose Retest to Confirm Inhibitors of Cancer Stem Cells. [Related pubchem assays (depositor defined):AID2717, AID2721]. The test is classed as functional. The conditions noted are these: Homo sapiens.
A short description of test [4]: nonselective inhibitors of cellular cAMP signaling, dose response, counter-screen for MC4R biased antagonist project, cell-based, TR-FRET cAMP detection (AID 602305).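 Note: U2OS cells stimulated with forskolin near its EC80 as the cAMP inducer; potency is for inhibition of forskolin-stimulated cAMP signaling.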 It is filed as functional. Background: Counterscreens check selectivity or assay interference.
Test [5] has as its target Melanocortin receptor 4 (Homo sapiens, UniProt P32245). In words: MC4R antagonist potency on cAMP, dose response, cell-based, TR-FRET, biased antagonists (AID 602298).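 Note: antagonist potency against agonist-stimulated cAMP production.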 It is filed as functional. Background: TR-FRET usually uses a lanthanide donor and a delayed reading to cut background.
In test [6] the target is T2, Replicative DNA helicase DnaB (Mycobacterium tuberculosis, UniProt P9WMR3).
T2 sequence (P9WMR3 whole entry): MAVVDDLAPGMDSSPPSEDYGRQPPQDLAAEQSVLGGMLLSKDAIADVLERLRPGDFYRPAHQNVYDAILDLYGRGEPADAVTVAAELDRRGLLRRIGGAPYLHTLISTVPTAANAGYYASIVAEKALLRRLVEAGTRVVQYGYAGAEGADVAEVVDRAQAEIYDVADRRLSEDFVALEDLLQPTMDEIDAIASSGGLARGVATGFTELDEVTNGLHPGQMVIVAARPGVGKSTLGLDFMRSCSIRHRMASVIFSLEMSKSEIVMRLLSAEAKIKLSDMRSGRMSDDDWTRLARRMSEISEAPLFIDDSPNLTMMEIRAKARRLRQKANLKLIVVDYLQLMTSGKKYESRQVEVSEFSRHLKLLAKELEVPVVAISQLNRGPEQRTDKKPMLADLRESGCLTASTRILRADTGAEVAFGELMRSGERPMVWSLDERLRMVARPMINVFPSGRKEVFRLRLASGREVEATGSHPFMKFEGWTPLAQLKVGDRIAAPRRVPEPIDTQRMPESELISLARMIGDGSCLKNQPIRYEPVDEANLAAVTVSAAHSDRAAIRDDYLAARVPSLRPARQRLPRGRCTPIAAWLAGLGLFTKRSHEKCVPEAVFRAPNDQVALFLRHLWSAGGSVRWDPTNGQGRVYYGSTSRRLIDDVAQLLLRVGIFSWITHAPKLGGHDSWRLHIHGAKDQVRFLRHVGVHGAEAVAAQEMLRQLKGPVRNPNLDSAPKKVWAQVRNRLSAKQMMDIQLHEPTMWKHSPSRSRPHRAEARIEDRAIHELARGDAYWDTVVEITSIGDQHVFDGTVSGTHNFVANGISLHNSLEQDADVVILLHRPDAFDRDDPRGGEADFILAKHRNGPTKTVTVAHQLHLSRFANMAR
The test is described as follows: DnaB intein splicing inhibitors, dose response, biochemical, cell-free fluorescence (AID 449749). It is filed as functional.

Test [7] has as its target T3, Protein RecA (Mycobacterium tuberculosis, UniProt P9WHJ3).
T3 sequence (P9WHJ3 whole entry): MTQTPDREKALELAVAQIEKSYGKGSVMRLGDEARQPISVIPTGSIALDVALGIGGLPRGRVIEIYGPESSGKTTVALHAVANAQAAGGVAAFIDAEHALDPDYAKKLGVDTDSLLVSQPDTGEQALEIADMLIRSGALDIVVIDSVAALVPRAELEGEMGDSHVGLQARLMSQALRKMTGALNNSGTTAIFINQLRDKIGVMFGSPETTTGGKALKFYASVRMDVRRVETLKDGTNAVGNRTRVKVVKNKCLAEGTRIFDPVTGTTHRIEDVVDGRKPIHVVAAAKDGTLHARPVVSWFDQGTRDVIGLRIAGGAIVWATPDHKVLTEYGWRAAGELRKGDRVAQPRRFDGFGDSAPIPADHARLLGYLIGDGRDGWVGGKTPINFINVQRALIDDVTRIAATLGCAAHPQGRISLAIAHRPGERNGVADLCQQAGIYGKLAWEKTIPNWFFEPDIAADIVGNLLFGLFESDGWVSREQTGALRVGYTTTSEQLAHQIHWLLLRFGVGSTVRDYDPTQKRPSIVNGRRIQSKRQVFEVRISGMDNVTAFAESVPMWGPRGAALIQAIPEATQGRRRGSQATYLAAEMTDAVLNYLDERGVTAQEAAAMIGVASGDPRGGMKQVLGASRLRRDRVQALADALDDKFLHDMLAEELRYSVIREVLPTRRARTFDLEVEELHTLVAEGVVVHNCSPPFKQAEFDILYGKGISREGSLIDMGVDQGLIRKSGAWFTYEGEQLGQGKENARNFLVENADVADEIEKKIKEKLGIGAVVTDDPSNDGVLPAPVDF
The test is described as follows: Fluorescence Cell-Free Homogeneous Dose Retest to Identify Inhibitors of RecA-Intein Splicing Activity. [Related pubchem assays (depositor defined):AID2097, AID2223, AID489010, AID492950]. It is filed as functional.

Test [8] has as its target T4, Heat shock factor protein 1 (Mus musculus, UniProt P38532).
T4 sequence (P38532 whole entry): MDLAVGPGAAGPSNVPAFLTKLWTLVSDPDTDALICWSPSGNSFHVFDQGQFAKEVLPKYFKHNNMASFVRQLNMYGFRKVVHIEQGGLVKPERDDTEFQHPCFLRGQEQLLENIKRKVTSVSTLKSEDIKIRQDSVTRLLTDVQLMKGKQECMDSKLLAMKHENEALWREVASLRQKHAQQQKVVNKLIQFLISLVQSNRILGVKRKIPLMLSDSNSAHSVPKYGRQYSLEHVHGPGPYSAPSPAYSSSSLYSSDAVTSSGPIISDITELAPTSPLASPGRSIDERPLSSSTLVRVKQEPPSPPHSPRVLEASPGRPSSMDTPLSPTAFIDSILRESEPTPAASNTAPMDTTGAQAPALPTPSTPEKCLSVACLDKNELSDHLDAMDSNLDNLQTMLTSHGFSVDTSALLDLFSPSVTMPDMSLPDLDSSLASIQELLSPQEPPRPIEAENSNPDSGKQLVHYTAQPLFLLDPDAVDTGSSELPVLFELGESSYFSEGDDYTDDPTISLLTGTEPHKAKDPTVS
The test is described as follows: HSF1 potentiators in luciferase reporter cells, confirmation, cell-based, NIH3T3, luminescence, dose retest (AID 435004).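 Note: stress induced by proteasome inhibitor MG132 added 30 min after compound; luciferase reporter driven by HSF1 response element in NIH3T3 cells; actives raise luminescence as potentiators of the MG132 stress response.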 It is filed as functional. In general terms: In a reporter assay the amount or activity of a reporter protein is the signal.

Test [9] concerns the target Beta-galactosidase (Escherichia coli, UniProt Q8VNN2). The test is described as follows: PubChem AID 485352. It is filed as functional.
The target in test [10] is T5, DNA topoisomerase (Yersinia pestis, UniProt A0A2S9PM60).
T5 sequence (A0A2S9PM60 whole entry): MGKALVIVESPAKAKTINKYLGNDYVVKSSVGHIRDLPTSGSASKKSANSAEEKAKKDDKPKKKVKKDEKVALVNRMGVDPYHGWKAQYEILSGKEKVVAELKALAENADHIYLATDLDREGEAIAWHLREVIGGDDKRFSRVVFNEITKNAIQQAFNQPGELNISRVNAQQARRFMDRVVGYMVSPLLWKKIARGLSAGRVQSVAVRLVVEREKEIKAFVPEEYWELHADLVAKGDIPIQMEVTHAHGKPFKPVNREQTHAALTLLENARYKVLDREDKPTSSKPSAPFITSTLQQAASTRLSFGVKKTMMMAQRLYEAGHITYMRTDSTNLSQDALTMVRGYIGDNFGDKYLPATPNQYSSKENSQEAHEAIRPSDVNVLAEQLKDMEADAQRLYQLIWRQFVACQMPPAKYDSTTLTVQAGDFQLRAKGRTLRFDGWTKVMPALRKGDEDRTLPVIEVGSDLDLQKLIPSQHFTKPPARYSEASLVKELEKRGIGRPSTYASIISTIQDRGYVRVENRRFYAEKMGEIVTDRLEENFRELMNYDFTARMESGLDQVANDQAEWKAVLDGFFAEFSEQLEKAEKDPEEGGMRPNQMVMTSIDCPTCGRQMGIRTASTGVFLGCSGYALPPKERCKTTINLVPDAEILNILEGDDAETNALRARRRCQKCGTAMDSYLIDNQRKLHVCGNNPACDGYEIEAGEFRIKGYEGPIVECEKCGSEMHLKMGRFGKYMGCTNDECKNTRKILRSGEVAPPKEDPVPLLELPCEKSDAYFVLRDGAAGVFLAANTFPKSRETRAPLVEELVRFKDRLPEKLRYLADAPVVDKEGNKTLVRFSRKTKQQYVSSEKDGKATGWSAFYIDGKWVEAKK
In words: Y. pestis Topo-I inhibitors, cleavage product readout, dose response, biochemical, cherry-pick (AID 588525).

For test [11], the target named is T6, Type-1 angiotensin II receptor (Homo sapiens, UniProt P30556).
T6 sequence (P30556 whole entry): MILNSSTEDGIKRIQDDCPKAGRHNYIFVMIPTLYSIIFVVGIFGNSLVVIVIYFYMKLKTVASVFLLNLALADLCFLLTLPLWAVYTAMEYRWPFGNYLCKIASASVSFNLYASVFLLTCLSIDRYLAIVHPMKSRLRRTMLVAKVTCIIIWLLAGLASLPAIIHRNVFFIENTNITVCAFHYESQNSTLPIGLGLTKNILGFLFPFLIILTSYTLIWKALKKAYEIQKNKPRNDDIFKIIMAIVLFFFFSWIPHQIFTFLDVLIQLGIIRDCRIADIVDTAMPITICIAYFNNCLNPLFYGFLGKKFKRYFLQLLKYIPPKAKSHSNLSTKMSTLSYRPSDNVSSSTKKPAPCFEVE
In words: AT1 receptor antagonists, dose response, selectivity assay for APJ receptor antagonist project, cell-based, uHTS hits (AID 463214).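 Note: antagonist potency against angiotensin II stimulated AT1 response.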 The test is classed as functional.

A short description of test [12]: cytotoxicity in KRAS-transformed pancreatic duct cells, primary screen, cell-based, fluorescence, HTS (AID 431).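 Note: cell line used: HPDE-C7K.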 It is filed as functional. The following applies: Homo sapiens.
A short description of test [13]: cytotoxicity in HPDE-C7 cells, cell-based, fluorescence, HTS (AID 430). It is filed as functional. The conditions noted are these: Homo sapiens.

Activity calls are given as the source filed them.

Melanocortin receptor 4, sequence (P32245 whole entry): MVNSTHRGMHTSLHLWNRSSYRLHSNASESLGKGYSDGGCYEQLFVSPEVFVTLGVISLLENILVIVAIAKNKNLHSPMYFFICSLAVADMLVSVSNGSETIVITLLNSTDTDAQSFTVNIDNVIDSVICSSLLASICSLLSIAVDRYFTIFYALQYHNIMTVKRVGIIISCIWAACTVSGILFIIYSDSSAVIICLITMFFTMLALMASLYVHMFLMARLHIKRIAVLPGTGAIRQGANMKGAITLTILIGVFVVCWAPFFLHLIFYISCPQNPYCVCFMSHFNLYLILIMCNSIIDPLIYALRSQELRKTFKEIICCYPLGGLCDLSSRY
Beta-galactosidase, sequence (Q8VNN2 whole entry): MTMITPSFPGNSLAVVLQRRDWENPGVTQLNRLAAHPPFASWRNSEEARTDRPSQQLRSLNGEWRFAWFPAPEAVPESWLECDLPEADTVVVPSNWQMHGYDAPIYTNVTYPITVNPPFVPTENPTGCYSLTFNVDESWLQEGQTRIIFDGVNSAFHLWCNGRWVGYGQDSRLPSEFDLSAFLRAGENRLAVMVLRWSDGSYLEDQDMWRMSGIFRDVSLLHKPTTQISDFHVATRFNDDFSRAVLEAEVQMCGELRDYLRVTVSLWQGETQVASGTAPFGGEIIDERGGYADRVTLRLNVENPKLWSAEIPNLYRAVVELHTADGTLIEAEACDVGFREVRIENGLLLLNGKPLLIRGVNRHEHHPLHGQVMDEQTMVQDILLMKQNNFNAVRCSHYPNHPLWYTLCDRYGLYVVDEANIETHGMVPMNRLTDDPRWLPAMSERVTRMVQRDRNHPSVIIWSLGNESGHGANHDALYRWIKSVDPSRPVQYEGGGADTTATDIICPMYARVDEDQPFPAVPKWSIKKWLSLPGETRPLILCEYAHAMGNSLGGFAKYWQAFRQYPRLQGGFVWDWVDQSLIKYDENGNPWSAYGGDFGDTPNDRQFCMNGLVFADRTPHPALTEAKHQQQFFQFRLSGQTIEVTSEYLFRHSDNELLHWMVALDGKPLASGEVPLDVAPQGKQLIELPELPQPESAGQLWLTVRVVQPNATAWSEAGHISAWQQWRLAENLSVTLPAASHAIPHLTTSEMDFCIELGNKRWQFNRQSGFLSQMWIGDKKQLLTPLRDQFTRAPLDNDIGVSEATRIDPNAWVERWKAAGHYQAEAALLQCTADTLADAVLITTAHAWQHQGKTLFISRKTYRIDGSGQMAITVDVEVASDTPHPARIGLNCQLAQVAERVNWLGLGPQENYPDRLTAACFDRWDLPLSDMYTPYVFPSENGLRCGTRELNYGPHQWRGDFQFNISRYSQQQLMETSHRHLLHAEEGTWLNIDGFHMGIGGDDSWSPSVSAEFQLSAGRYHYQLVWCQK

The term IC50 denotes the concentration needed to halve the response being measured. Consider `CC(C)(C)NCC(O)c1cc(O)cc(O)c1` (stereo not given), for which the IC50 in test [1] is 0.0841 µM (active); in test [2] it was 0.0142 µM (active).
The like results for `O=[N+]([O-])c1ccc(CSc2nnc3ccccn23)cc1` were, in that order, 4.29 µM (active) and 0.8 µM (active).
A word on the AC50: it is the midpoint of the concentration-response curve, whichever way the signal moves. A word on the EC50: it is the concentration giving half of the maximal effect. Consider `O=C(C[S+]([O-])c1ccc(C(F)(F)F)cc1[N+](=O)[O-])Oc1ccccc1` (stereo not given), for which the IC50 in test [1] is 12.3 µM (active); in [4], > 64.6 µM (inactive); in test [5], 13.5 µM (inactive). Also, the AC50 was 3.71 µM (active) in test [3] and 10.4 µM (active) in [6]. For the same compound, the EC50 in test [7] was 4.59 µM (active); in [8], 22.7 µM (active).
As to `Cc1ccccc1NCC(=O)c1ccc(Br)cc1`, the EC50 in test [9] is > 40 µM (inactive). The AC50 in [10] is 1.96 µM (active). In test [11], the IC50 was 8.62 µM (active).
As to `Cc1ccc(-n2nc3ccc(NC(=S)NC(=O)/C=C/c4ccco4)cc3n2)cc1`, the IC50 is > 64.6 µM (inactive) in [4] and 55.6 µM (inactive) in test [5].
Turning to `CCN(CC)S(=O)(=O)c1cc(C(=O)Nc2nncs2)c(Cl)cc1Cl`, the values for the EC50 in test [12] and in [13] were > 20 µM (not active) and 13.5 µM (active), respectively. The 50% inhibitory concentration (IC50) in test [1] was 7.64 µM (active); in test [2] it was 6.21 µM (active).

For the origin of these results see ChEMBL document CHEMBL1201862, “PubChem BioAssay data set” (2004).
